ChEMBL document CHEMBL2203065, “Synthesis and glycosidase inhibitory activity of novel (2-phenyl-4H-benzopyrimedo[2,1-b]-thiazol-4-yliden)acetonitrile derivatives” (Bioorg Med Chem Lett, 2012)

Experiments:
[1] = Inhibition of intestinal glucosidase in Swiss mouse intestinal extracts
Pancreatic alpha-amylase = biological target: T1, Pancreatic alpha-amylase (Sus scrofa, UniProt P00690); assay: Inhibition of porcine pancreatic alpha amylase using starch as substrate by Bernfeld method
T1 sequence (P00690 whole entry): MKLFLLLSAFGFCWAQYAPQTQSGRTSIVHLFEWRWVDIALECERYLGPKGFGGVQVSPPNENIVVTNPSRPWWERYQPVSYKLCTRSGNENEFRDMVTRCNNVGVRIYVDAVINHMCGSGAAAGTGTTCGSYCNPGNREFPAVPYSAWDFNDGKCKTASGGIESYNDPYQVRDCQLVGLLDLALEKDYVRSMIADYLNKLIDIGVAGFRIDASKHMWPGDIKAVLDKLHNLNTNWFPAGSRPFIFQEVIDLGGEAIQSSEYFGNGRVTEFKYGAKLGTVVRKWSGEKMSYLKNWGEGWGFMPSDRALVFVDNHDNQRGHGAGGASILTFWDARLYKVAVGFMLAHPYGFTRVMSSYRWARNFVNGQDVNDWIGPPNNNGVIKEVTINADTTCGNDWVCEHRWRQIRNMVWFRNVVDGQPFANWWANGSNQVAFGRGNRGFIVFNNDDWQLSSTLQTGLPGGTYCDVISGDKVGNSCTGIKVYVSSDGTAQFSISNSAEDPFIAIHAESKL

[2] = biological target: Lysosomal alpha-glucosidase (Mus musculus, UniProt P70699); assay: Inhibition of liver glucosidase in Swiss mouse liver extracts
[3] = Inhibition of pancreatic glucosidase in Swiss mouse pancreatic extracts

Chain of Lysosomal alpha-glucosidase (P70699 whole entry): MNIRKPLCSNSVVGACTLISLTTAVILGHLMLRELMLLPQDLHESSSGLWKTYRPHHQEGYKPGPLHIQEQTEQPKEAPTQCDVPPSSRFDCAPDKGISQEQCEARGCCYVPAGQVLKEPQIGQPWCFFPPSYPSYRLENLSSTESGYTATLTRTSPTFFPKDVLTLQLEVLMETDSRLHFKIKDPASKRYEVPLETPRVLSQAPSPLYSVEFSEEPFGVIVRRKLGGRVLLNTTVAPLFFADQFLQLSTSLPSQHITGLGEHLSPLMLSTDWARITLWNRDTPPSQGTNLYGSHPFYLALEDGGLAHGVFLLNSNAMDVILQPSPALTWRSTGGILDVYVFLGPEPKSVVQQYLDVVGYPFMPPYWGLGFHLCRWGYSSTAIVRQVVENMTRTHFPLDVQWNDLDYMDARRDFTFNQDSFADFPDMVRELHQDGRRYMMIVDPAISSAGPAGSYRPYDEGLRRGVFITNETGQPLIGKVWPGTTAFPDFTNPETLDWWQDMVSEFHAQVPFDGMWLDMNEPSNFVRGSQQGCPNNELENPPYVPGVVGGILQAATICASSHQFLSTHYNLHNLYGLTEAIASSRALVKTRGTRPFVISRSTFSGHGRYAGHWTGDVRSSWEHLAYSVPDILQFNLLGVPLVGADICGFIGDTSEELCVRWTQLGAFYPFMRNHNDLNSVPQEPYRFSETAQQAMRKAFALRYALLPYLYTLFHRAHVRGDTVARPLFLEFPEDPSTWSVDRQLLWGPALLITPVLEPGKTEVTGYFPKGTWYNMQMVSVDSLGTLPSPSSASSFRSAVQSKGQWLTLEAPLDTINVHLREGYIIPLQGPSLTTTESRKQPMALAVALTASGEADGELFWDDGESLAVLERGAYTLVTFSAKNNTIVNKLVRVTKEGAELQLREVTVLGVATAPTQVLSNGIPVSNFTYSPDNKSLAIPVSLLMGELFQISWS

| Compound | IC50 (Pancreatic alpha-amylase) | IC50 [2] | IC50 [3] | IC50 ([1]; read-out: IC50) | IC50 [1] |
| --- | --- | --- | --- | --- | --- |
| N#C/C=C1\C=C(c2ccc(Br)cc2)N=C2Sc3ccccc3N21 | 15.3 µM | 28.2 µM | 23 µM | – | Not Active |
| C[C@H]1O[C@H](O[C@H]2[C@H](O)[C@@H](O)[C@@H](O[C@H]3[C@H](O)[C@@H](O)C(O)O[C@@H]3CO)O[C@@H]2CO)[C@H](O)[C@@H](O)[C@@H]1N[C@H]1C=C(CO)[C@@H](O)[C@H](O)[C@H]1O (stereo not given in full) [ACARBOSE] | – | > 100 µM | > 100 µM | – | Not Active |
| N#C/C=C1\C=C(c2ccc(Cl)cc2)N=C2Sc3ccccc3N21 | 21.9 µM | 22 µM | 17.4 µM | 17.6 µM | – |
| N#C/C=C1\C=C(c2ccc(F)cc2)N=C2Sc3ccccc3N21 | 24.4 µM | 25 µM | 17.5 µM | 37.3 µM | – |
| Cc1ccc(C2=C/C(=C\C#N)N3C(=N2)Sc2ccccc23)cc1 | 23.2 µM | 20.3 µM | 34.9 µM | 36.1 µM | – |
| N#C/C=C1\C=C(c2ccc3ccccc3c2)N=C2Sc3ccccc3N21 | 19.9 µM | 21.2 µM | 22.9 µM | 22.6 µM | – |

Further lines, with some results ahead:

| IC50 (Pancreatic alpha-amylase) | IC50 [2] | IC50 [3] | IC50 ([1]; read-out: IC50) | Compound | IC50 [1] |
| --- | --- | --- | --- | --- | --- |
| 21.8 µM | 18.7 µM | 46.1 µM | 38.6 µM | CCOc1ccc2c(c1)SC1=NC(c3ccccc3)=C/C(=C\C#N)N12 | – |
| 23 µM | 23.5 µM | 21.4 µM | 32.6 µM | N#C/C=C1\C=C(c2ccccc2)N=C2Sc3ccccc3N21 | – |
| 19.5 µM | 18.3 µM | 29.5 µM | 27.4 µM | COc1ccc2c(c1)SC1=NC(c3ccc(C)cc3)=C/C(=C\C#N)N12 | – |
| 20.2 µM | 19.7 µM | 20.7 µM | 25.9 µM | COc1ccc2c(c1)SC1=NC(c3ccc(Cl)cc3)=C/C(=C\C#N)N12 | – |
| 17.4 µM | 14.1 µM | 33.8 µM | 30.5 µM | COc1ccc2c(c1)SC1=NC(c3ccc(Br)cc3)=C/C(=C\C#N)N12 | – |
| 18.7 µM | 15.9 µM | 30.3 µM | 62.5 µM | COc1ccc2c(c1)SC1=NC(c3ccc4ccccc4c3)=C/C(=C\C#N)N12 | – |
| 22.3 µM | 25 µM | 29.2 µM | 41.6 µM | COc1ccc2c(c1)SC1=NC(c3ccccc3)=C/C(=C\C#N)N12 | – |
| 20.6 µM | 21.1 µM | 19 µM | 30.4 µM | COc1ccc2c(c1)SC1=NC(c3ccc(F)cc3)=C/C(=C\C#N)N12 | – |
